Results as given in US5230998A, “Method for the prescreening of drugs targeted to the V3 hypervariable loop of the HIV-1 envelope glycoprotein gp 120” (priority 1991, dated 1993).

Tests used:
[1] = tested on: V3 hypervariable loop peptides from gp120 from 21 distinct HIV-1 isolates (clones); experiment: Inhibition of the reaction of V3 hypervariable loop peptides from 21 HIV-1 isolates with homologous anti-peptide antisera; type: binding; conditions: 21 HIV-1 isolates (clones); antisera 1:1,000; FIG. 7A, 7B
Text: FIGS. 7A and 7B are bar graphs depicting the inhibitory effect of deuteroporphyrin IX,2,4 (4,2) hydroxyethylvinyl (FIG. 7A) and of meso-tetra(4-carboxyphenyl)porphine (FIG. 7B) on the reaction of full-length V3 hypervariable loop peptides from gp120 from 21 distinct HIV-1 isolates (clones) with homologous anti-peptide antisera. Peptide coated wells of polystyrene plates were reacted in the presence and absence of the inhibitory compounds with the respective rabbit antisera diluted 1:1,000, and the attachment of rabbit IgG was subsequently determined using ^125 I-labeled anti-rabbit IgG. […]
(§1) To define sites on gp120/gp41 reacting with ATA, the inhibitory effect of this compound was studied by RIA tests using gp120- and gp160-coated wells, respectively, and antisera (final dilutions 1:150) against synthetic peptides from the entire sequence of gp120/gp41 of HIV-1 BH 10. […] Attached rabbit IgG was detected using ^125 I-labeled anti-rabbit IgG, as described before (Neurath et al., 1990, J. Gen. Virol., 71, 85-95). […]
(§2) The inhibitory effect of ATA and of other compounds on the reaction between antibodies with predetermined specificity and gp120 (or synthetic peptides derived from it) was determined from the formula: [formula] An analogous formula was used to calculate the percentage of inhibition from optical density readings resulting from ELISA tests.

[2] = tested on: HIV-1 isolates IIIB, MN, SF2 and RF; experiment: Antiviral activity of porphyrin derivatives for distinct HIV-1 isolates in promonocytic U937 cells (FIG. 12A); type: cell-based
Description: (§3) FIG. 12A and FIG. 12B are graphs depicting antiviral activity of selected porphyrin derivatives for distinct HIV-1 isolates in T-lymphocytic (MT-2) (FIG. 12B) and a promonocytic (U937) (FIG. 12A) cell lines. […] Therefore, the antiviral activity against HIV-1 RF could not be tested in this cell line. Note that the higher the value of EC50, the less efficient is the drug for inhibiting HIV-1 replication.
(§4) Four of the porphyrin derivatives (see FIG. 12) were tested for their inhibiting activity and the replication of four distinct HIV-1 isolates: IIIB, MN, SF2 and RF in two different cell lines, U937 and MT-2.

[3] = tested on: HIV-1 isolates IIIB, MN, SF2 and RF; experiment: Antiviral activity of porphyrin derivatives for distinct HIV-1 isolates in T-lymphocytic MT-2 cells (FIG. 12B); type: cell-based
Description: as §3, §4

[4] = molecular target: T1, V3 peptide from HIV-1 SC (Human immunodeficiency virus type 1 (SC ISOLATE), UniProt P05878); experiment: Inhibition of the reaction of antibodies with the V3 peptide from HIV-1 SC (FIG. 7B); type: binding; conditions: as compared with HXB-2 and HXB-3 V3 peptides
T1 construct: cut from Env gp160
T1 sequence (P05878 296-330): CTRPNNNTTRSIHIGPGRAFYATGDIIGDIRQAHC
Text: FIGS. 7A and 7B are bar graphs depicting the inhibitory effect of deuteroporphyrin IX,2,4 (4,2) hydroxyethylvinyl (FIG. 7A) and of meso-tetra(4-carboxyphenyl)porphine (FIG. 7B) on the reaction of full-length V3 hypervariable loop peptides from gp120 from 21 distinct HIV-1 isolates (clones) with homologous anti-peptide antisera. Peptide coated wells of polystyrene plates were reacted in the presence and absence of the inhibitory compounds with the respective rabbit antisera diluted 1:1,000, and the attachment of rabbit IgG was subsequently determined using ^125 I-labeled anti-rabbit IgG.
as §1, §2

[5] = molecular target: T2, HIV-1 gp120 V3 hypervariable loop (Human immunodeficiency virus type 1 group M subtype B, UniProt P03375); experiment: biochemical; type: binding; conditions: excess of serum proteins in medium
T2 construct: Polystyrene plates coated with recombinant gp120 and gp160, respectively; purchased American Bio-Technologies, Inc., Cambridge, Mass; host or cells: baculovirus expression system
Description: Wells of 96 well polystyrene plates (Immulon 2, Dynatech Laboratories, Inc., Chantilly, Va.) were coated with synthetic peptides (200 μl; 20μg/ml in 0.1 M Tris-HCl, pH 8.8) overnight at 20° C. The peptides were from the sequence of HIV-1, clone BH 10 envelope glycoproteins gp120 and gp41 (Neurath, A. R., Strick, N., and Lee, E. Y. S. (1990), "B-cell Epitope Mapping of Human Immunodeficiency virus (HIV-1) Envelope Glycoprotein with Long (19 to 36-residue) Synthetic Peptides", J. Gen. Virol., 71., 85-95) and from V3 hypervariable loops of 21 distinct HIV-1 isolates (clones) Neurath, A. R., and Strick, N., (1990), "Confronting the Hypervariability of an Immunodominant Epitope Eliciting Virus Neutralizing Antibodies from the Envelope Glycoprotein of the Human Immunodeficiency Virus Type 1 (HIV-1)", Molec. Immunol., 27, 539-549. The latter peptides corresponded to full-length V3 loops generated by disulfide bonds between N- and C- terminal cysteine residues. After washing with 0.14 M NaCl, 0.01 M Tris, 0.02% NaN3 (TS), the wells were postcoated with a mixture of bovine serum albumin (BSA) and gelatine (10 and 2.5 mg/ml, respectively) in TS. BSA was omitted from the postcoating solution for RIA tests in which antibodies to ATA were used. Polystyrene plates coated with recombinant gp120 and gp160, respectively, (500 ng/well; from American Bio-Technologies, Inc., Cambridge, Mass. and MicroGeneSys, Inc., West Haven, Conn., respectively) were also used for RIA and ELISA tests.
To define sites on gp120/gp41 reacting with ATA, the inhibitory effect of this compound was studied by RIA tests using gp120- and gp160-coated wells, respectively, and antisera (final dilutions 1:150) against synthetic peptides from the entire sequence of gp120/gp41 of HIV-1 BH 10. The preparation and biological properties of these antisera were described elsewhere (Neurath et al., (1990), J. Gen. Virol., 71, 85-95). Each of the antisera was diluted in a mixture of fetal bovine serum and goat serum (9:1) containing 0.1% Tween 20, adjusted to pH 8. ATA (final concentration 50 μg/ml) was added in one set of assays, but was omitted from a parallel set. After incubation overnight at 25° C., the plates were washed with TS. Attached rabbit IgG was detected using ^125 I-labeled anti-rabbit IgG, as described before (Neurath et al., 1990, J. Gen. Virol., 71, 85-95). Similarly, the inhibitory effect of ATA on the reaction of peptides derived from gp120/gp41 and of peptides derived from V3 hypervariable loops from gp120 of distinct HIV-1 isolates with the respective homologous anti-peptide antisera was studied. In the latter case, antisera were diluted 1:1,000 for the assays.
as §2
Chemicals other than ATA were screened for inhibitory activity essentially as described above. […] Chemicals with inhibitory activity established by the respective immunoassays were screened further for antiviral activity.
Commercially available ATA is a mixture of monomers and polymers of distinct molecular masses (Gonzalez et al., (1979) Biochem. Biophys. Acta, 562, 534-545); Cushman et al., (1991), J. Chem., 34, 329-337). The monomers [molecular mass (M.W.)=422.4 daltons] were separated from the polymers. ATA (20 mg/ml in the form of free acid neutralized with 0.4 M NaOH) was dialyzed against H2 O in a dialysis membrane with a molecular mass cutoff of 500 daltons.

[6] = tested on: gp120 V3 hypervariable loop; experiment: Binding of gp120 to monoclonal antibodies specific for the V3 hypervariable loop in the absence of other proteins; design: species or system HIV-1; conditions: 20-fold excess over gp120, absence of other proteins
Text: The inhibitory effect of dextran sulfate on gp120-antibody binding under these conditions was confirmed. The apparently contradictory results concerning binding of dextran sulfate to gp120 obtained by different methods can probably be explained by differences in equilibrium constants defining the binding reaction of gp120 with ATA and dextran sulfate, respectively. […] The relatively weak binding of dextran sulfate to the V3 hypervariable loop may contribute to the ineffectiveness of this substance in inhibiting HIV-1 replication in vivo (Mitsuya et al., (1990), Science, 249, 1533-1544).

[7] = tested on: gp120 V3 hypervariable loop; conditions: 20-fold excess over gp120, absence of other proteins; cited from earlier work
[8] = tested on: gp120 expressed on the surface of HIV-1-infected cells; conditions: literature; cited from earlier work
[9] = tested on: HIV-1; conditions: literature; cited from earlier work

| Molecule | inhibition of interaction between V3 hypervariable loop peptides and homologous antibodies [1] | inhibition of HIV-1 replication in U937 cells [2] | inhibition of HIV-1 replication in MT-2 cells [3] | inhibitory activity on the reaction of antibodies with the V3 peptide [4] | reaction with the V3 hypervariable loop as determined by RIA (ELISA) tests [5] | inhibitory effect on gp120-antibody binding [6] | blocking of binding of gp120 to monoclonal antibodies [7] | inhibition of the reaction of gp120 on infected cells with monoclonal anti-gp120 antibodies [8] | inhibition of HIV-1 replication in vivo [9] |
| --- | --- | --- | --- | --- | --- | --- | --- | --- | --- |
| O=C(O)c1ccc(-c2c3nc(c(-c4ccc(C(=O)O)cc4)c4ccc([nH]4)c(-c4ccc(C(=O)O)cc4)c4nc(c(-c5ccc(C(=O)O)cc5)c5ccc2[nH]5)C=C4)C=C3)cc1 [substance #160, meso-tetra (4-carboxyphenyl) porphine] | inhibited the interaction between V hypervariable loop peptides and homologous antibodies corresponding to all 21 HIV-1 isolates (clones) tested | most effective agent with broad specificity | most effective agent with broad specificity | relatively low inhibitory activity |  |  |  |  |  |
| deuteroporphyrin IX, 2,4 (4,2) hydroxy-ethyl vinyl [substance #151] | inhibited the interaction between V hypervariable loop peptides and homologous antibodies corresponding to all 21 HIV-1 isolates (clones) tested |  |  |  |  |  |  |  |  |
| dextran sulfate |  |  |  |  | did not react with the V3 hypervariable loop | confirmed | blocked | inhibit the reaction of gp120 expressed on the surface of HIV-1-infected cells with monoclonal anti-gp120 antibodies | ineffectiveness |
